Data on 23 molecules can be found in patent US12492182B2, “Hydroxytriazine compounds and pharmaceutical use thereof” (Japan Tobacco Inc., priority 2015, dated 2025).

Where two headings read alike, the source gives them in different places.

One experiment deals with A549 cell. Briefly: Evaluation of PGE2 production inhibitory action using A549 cell (IL-1β stimulated). Type of experiment: cell-based, human. As for the experimental part:
Experimental Example 2: Evaluation of PGE2 Production Inhibitory Action Using A549 Cell
A549 cell (Japan Health Sciences Foundation Research Resources Bank), which is cell line derived from humans lung cancer, was suspended in assay medium (Ham's F-12K (Wako, #080-08565) containing 2% FBS (Hyclone Laboratories, #SH30910.03), 100 units/mL penicillin and 100 μg/mL streptomycin (Invitrogen, #15140-122)), the suspension was added at 2.5×10^4 cells/100 μL/well to 96 well flat-bottom plate (Corning, #353072), and the plate was left standing for 20 hr in a CO2 incubator set at 37° C. The test article was serially diluted with DMSO (Nacalai Tesque, #13407-45), and then 20-fold diluted with the assay medium to prepare a test article solution having a ten-fold concentration of the final concentration. The final DMSO concentration during the reaction was set to 0.5% (v/v). The medium was removed from the plate in which the cell was added, new assay medium was added at 160 μL/well to the plate, and the plate was left standing for 10 min in a CO2 incubator. Then, the test article solution was added at 20 μL/well to the plate, and the plate was left standing for 30 min in a CO2 incubator. Next, recombinant humans IL-1β (R&D Systems, #201-LB) as a stimulant to enhance PGE2 production due to increase of mPGES-1 mRNA expression was added at 20 μL/well (the final concentration was 1 ng/mL) to the plate, and the plate was left standing for 18 hr in a CO2 incubator. The supernatant was collected at 180 μL/well, and the PGE2 concentration was measured using Prostaglandin E2 assay (CISbio Bioassays, #62P2APEC) according to the manual. As the reference standard for analytical curve, PGE2 (Cayman Chemical, #14010) was used. Using EnVision 2104 (Perkin Elmer), the time-resolved fluorescence at 620 nm and 665 nm relative to the excitation light at 337 nm was measured. PGE2 concentration was extrapolated from the PGE2 analytical curve. Average of the PGE2 concentrations of the respectively-treated wells was used as the data.
The PGE2 production inhibitory activity (%) of the test article was calculated according to the following Formula 3. PGE2 production inhibitory activity(%)=(PGE2A−PGE2X)/(PGE2A−PGE2B)×100 [Formula 3] • PGE2A: PGE2 concentration of vehicle-treated well • PGE2B: PGE2 concentration of blank well (no addition of recombinant humans IL-1B) • PGE2X: PGE2 concentration of test article-treated well

A further experiment deals with T1, human mPGES-1 (Homo sapiens, UniProt O14684).
T1 construct: made in house; host or cells: Chinese hamster ovary-derived cells (FreeStyle CHO-S), transient transfection of pcDNA3.1(+)/human mPGES-1; microsome fraction
T1 sequence (O14684 1-152): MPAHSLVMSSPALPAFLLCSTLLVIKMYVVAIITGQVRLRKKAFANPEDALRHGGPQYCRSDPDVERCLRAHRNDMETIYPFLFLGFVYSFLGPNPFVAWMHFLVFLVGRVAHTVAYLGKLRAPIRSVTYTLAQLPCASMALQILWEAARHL
Nature of the experiment: Evaluation of human mPGES-1 enzyme inhibitory activity (HTRF measurement of PGE2). Type of experiment: biochemical. The settings on record: IC50 value; microsome fraction of CHO-S cells expressing human mPGES-1, PGH2 substrate, PGE2 by HTRF; read-out: humans mPGES-1 enzyme inhibitory activity. As for the experimental part: Experimental Example 1: Evaluation of Human mPGES-1 Enzyme Inhibitory Activity
The human mPGES-1 enzyme inhibitory activity of a test article was evaluated according to the report of Xu et al. (XU, D et al. MF63 [2-(6-chloro-1H-phenanthro[9,10-d]imidazol-2-yl)-isophthalonitrile], a selective microsomal prostaglandin E synthase-1 inhibitor relieves pyresis and pain in preclinical models of inflammation. J Pharmacol Exp Ther. September 2008, Vol. 326, No. 3, pages 754-763). The amount of PGE2 produced by human mPGES-1 in the presence of a test article was measured by the HTRF (homogeneous time resolved fluorescence) method, and the human mPGES-1 enzyme inhibitory activity of the test article was determined.
1) Preparation of Human mPGES-1 Expressing Cell Microsome Fraction
A DNA fragment containing human mPGES-1, which is added with a BamHI recognition cleavage sequence just before the translation initiation codon and an EcoRI recognition cleavage sequence just after the translation termination codon, was amplified by the PCR (Polymerase Chain Reaction) method using a human mPGES-1 expression plasmid DNA (pME-18S/iPGES-1) prepared in-house as a template. The purified DNA fragment was digested with BamHI and EcoRI, and ligated to pcDNA3.1(+) (Invitrogen, model number V790-20), similarly_digested with BamHI and EcoRI, by using a DNA Ligation kit ver. 2.1 (Takara Bio, model number 6022). The human mPGES-1 expression plasmid DNA was isolated from Escherichia coli DH5a (TOYOBO, model number DNA-903) transformed with the obtained ligation product. The base sequence of human mPGES-1 cloned to a vector was determined by the Dye Terminator method using BigDye Terminator v3.1 Cycle Sequencing Kit (Applied Biosystems, #4337455). The determined sequence was identical with the sequence of the protein translational region of human mPGES-1 (Accession number NM 004878) registered in the NCBI Reference Database.
Human mPGES-1 expression plasmid DNA was transfected into Chinese hamster ovary-derived cells (FreeStyle CHO-S Cell, Invitrogen, #R^800-07) by using a transgene reagent (FreeStyle MAX Reagent (Invitrogen, #16447-100)), and cultured with shaking (8% CO2, 37° C.) in a medium containing 8 mmol/L L-glutamine (GIBCO FreeStyle CHO Expression Medium, Invitrogen, #12651-022) for 48 hr.
The CHO-S cells were suspended in Homogenate Buffer (100 mmol/L potassium phosphate (pH 7.4), 250 mmol/L Sucrose, 100 mmol/L EDTA, complete EDTA free (Roche, #1873580)). Using an ultrasonic disruptor UD-201 (Tomy Seiko), the suspended cells were disrupted at output:3, duty cycle:50 for 30 seconds. The precipitate was removed by centrifugation (1,000×g, 5 min, 4° C.), and the supernatant was centrifuged (5,000×g, 10 min, 4° C.). The supernatant was further centrifuged (105,000×g, 60 min, 4° C.). The obtained precipitate was suspended in Resuspension Buffer (100 mmol/L potassium phosphate (pH 7.4), 250 mmol/L sucrose, 100 mmol/L EDTA, 10% glycerol) to give a microsome fraction.
The protein concentration of the microsome fraction was measured by the Bradford method (Protein Assay Kit, Bio-Rad). The microsome fraction was rapidly frozen in liquid nitrogen and preserved at −80° C. Human mPGES-1 in the microsome fraction was detected by Western Blot using rabbit anti-mPGES-1 polyclonal antibody (ThermoFisher Scientific, #PA1-10264).
2) Evaluation of Human mPGES-1 Enzyme Inhibitory Activity
A test article solution diluted with 0.1 mol/L potassium phosphate, pH 7.4 (hereinafter to be referred to as KPB) or DMSO (Nacalai Tesque, #13407-45) was added at 5 μL/well to 96 well V-bottom plate (Corning, #3363). The final DMSO concentration during the reaction was set to 2%(v/v). Furthermore, a microsome fraction of CHO-S cells expressing human mPGES-1, which was diluted with reduced GSH (12.5 mmol/L KPB solution, SIGMA, #G6529-25G) such that the protein concentration was 5 μg/mL, was added at 20 μL/well. […]

Setting [1] is: Homo sapiens, A549, A549 cell, recombinant human IL-1β stimulation, read-out: cell PGE2 production inhibitory activity (IC50 value).
[2] abbreviates: A549 cell, recombinant human IL-1β stimulation, read-out: cell PGE2 production inhibitory activity (IC50 value).
[3] abbreviates: Homo sapiens, A549, 18 h, IC50 value, A549 cell, recombinant IL-1β 1 ng/mL, 18 hr, PGE2 in supernatant, read-out: cell PGE2 production inhibitory activity.

For `CCC[C@H](C)Oc1ccc(-c2nc(O)nc(-c3cc(CNC(=O)C4(C(F)F)CCCCC4)ccc3Cl)n2)cn1` [Example 109], the IC50 in the experiment on A549 cell (setting [1]) is 1.8 nM; at human mPGES-1, 3.2 nM.
For `CC(C)(C)c1cccc(-c2nc(O)nc(-c3cc(CNC(=O)C4(C(F)F)CCCCCC4)ccc3Cl)n2)c1` [Example 121] the same measures were 7.9 nM and 3.3 nM.
In the same order, the values of `CO[C@@](C)(C(=O)NCc1ccc(Cl)c(-c2nc(O)nc(-c3cccc(C(C)C)c3)n2)c1)C(F)(F)F` [Example 74] are 29 nM and 1.3 nM.
On to `CCC(OC)(C(=O)NCc1ccc(Cl)c(-c2nc(O)nc(-c3cccc(C(C)(C)C)c3)n2)c1)C(F)(F)F` (stereo not shown) [Example 133], for which the figures for the IC50 with A549 cell (setting [2]) and on human mPGES-1 were 2.4 nM and 1.4 nM, respectively.
For `CC(C)(C)c1cc(-c2nc(O)nc(-c3cc(CNC(=O)C(C)(C)C(F)(F)F)ccc3Cl)n2)ccc1F` [Example 67], the IC50 in the experiment with A549 cell (setting [1]) was found to be 3.9 nM; at human mPGES-1, 2.8 nM.
`Cc1ccc(-c2nc(O)nc(-c3cc(CNC(=O)C(C)(C)C(F)(F)F)ccc3Cl)n2)cc1C(C)C` [Example 53]: the IC50 in the experiment with A549 cell (setting [3]) was 3.7 nM; at human mPGES-1, 0.4 nM.
Take `CC(C)c1cccc(-c2nc(O)nc(-c3cc(CNC(=O)C(C)(C)C(F)F)ccc3Cl)n2)c1` [Example 77]: the IC50 in the experiment on A549 cell (setting [1]) amounted to 44 nM; on human mPGES-1, 0.8 nM.
In the same order, the values of `CCC[C@@H](C)Oc1ccc(-c2nc(O)nc(-c3cc(CNC(=O)C4(CF)CCCCC4)ccc3Cl)n2)cn1` [Example 128] are 1.3 nM and 2.2 nM.
On to `COc1ccc(-c2nc(O)nc(-c3cc(CNC(=O)C4(OC)CCCC4)ccc3Cl)n2)cn1` [Example 34], for which the IC50 came to 1000 nM with A549 cell (setting [3]) and 1.6 nM at human mPGES-1.
For `CC(C)c1cccc(-c2nc(O)nc(-c3cc(CNC(=O)C4(F)CC4)ccc3Cl)n2)c1` [Example 38] the same measures were 130 nM and 2.9 nM.
As for `CCC(OC)(C(=O)NCc1ccc(Cl)c(-c2nc(O)nc(-c3cccc(C(C)C)c3)n2)c1)C(F)(F)F` (single isomer, unassigned) [Example 134], the IC50 is 19 nM with A549 cell (setting [2]) and 1.7 nM on human mPGES-1.
Consider `CC(C)c1cc(-c2nc(O)nc(-c3cc(CNC(=O)C4(CF)CCCCC4)ccc3Cl)n2)ccc1Cl` [Example 101], for which the IC50 in the experiment on A549 cell (setting [1]) was 7.9 nM; on human mPGES-1 it was 2.1 nM.
`CCC[C@@H](C)Oc1ccc(-c2nc(O)nc(-c3cc(CNC(=O)C(C)(C)C(F)(F)F)ccc3Cl)n2)cn1` [Example 25, N-(4-chloro-3-{4-hydroxy-6-[6-((R)-1-methylbutoxy)pyridin-3-yl]-1,3,5-triazin-2-yl}benzyl)-3,3,3-trifluoro-2,2-dimethylpropionamide]: the IC50 amounted to 2.9 nM in the experiment on A549 cell (setting [3]) and 3.1 nM at human mPGES-1.
For `CCOc1ccc(-c2nc(O)nc(-c3cc(CNC(=O)C4(OC)CCCC4)ccc3Cl)n2)cn1` [Example 37] the same measures were 170 nM and 3 nM.
`CCC[C@@H](C)Oc1ccc(-c2nc(O)nc(-c3cc(CNC(=O)C(CC)(CC)CF)ccc3Cl)n2)cn1` [Example 124]: the values for the IC50 in the experiment on A549 cell (setting [1]) and at human mPGES-1 were 2.5 nM and 2.6 nM, respectively.
Turning to `CC(C)Oc1ccc(-c2nc(O)nc(-c3cc(CNC(=O)C(C)(C)C(F)(F)F)ccc3Cl)n2)cn1` [Example 40], the IC50 is 45 nM with A549 cell (setting [3]) and 0.8 nM at human mPGES-1.
Turning to `CCC(OC)(C(=O)NCc1ccc(Cl)c(-c2nc(O)nc(-c3cccc(C4(C)CC4)c3)n2)c1)C(F)(F)F` (stereo not shown) [Example 138], the IC50 came out at 8.4 nM in the experiment on A549 cell (setting [2]) and 1.5 nM at human mPGES-1.
`CCC[C@H](C)Oc1ccc(-c2nc(O)nc(-c3cc(CNC(=O)C(CC)(CC)C(F)F)ccc3Cl)n2)cn1` [Example 130]: the IC50 in the experiment on A549 cell (setting [1]) is 1.2 nM; on human mPGES-1, 3.8 nM.
For the molecule `CCC(OC)(C(=O)NCc1ccc(Cl)c(-c2nc(O)nc(-c3cccc(C(C)(C)C)c3)n2)c1)C(F)(F)F` (stereo not shown) [Example 135], the IC50 is 5.4 nM in the experiment with A549 cell (setting [2]) and 2 nM at human mPGES-1.
As for `COC1(C(=O)NCc2ccc(Cl)c(-c3nc(O)nc(-c4cccc(C(C)(C)C)c4)n3)c2)CCCCC1` [Example 24], the IC50 in the experiment on A549 cell (setting [3]) came out at 8.2 nM; on human mPGES-1 it was 1.6 nM.
With `CCCOc1ccc(-c2nc(O)nc(-c3cc(CNC(=O)C4(C(F)(F)F)CCCCC4)ccc3Cl)n2)cn1` [Example 46], the IC50 in the experiment with A549 cell (setting [3]) was determined as 4.1 nM; on human mPGES-1 it was 3.2 nM.
With `CCC[C@@H](C)Oc1ccc(-c2nc(O)nc(-c3cc(CNC(=O)C(C)(C)OC)ccc3Cl)n2)cn1` [Example 78], the IC50 was found to be 9.2 nM with A549 cell (setting [1]) and 1.2 nM on human mPGES-1.
In the same order, the values of `CCC[C@H](C)Oc1ccc(-c2nc(O)nc(-c3cc(CNC(=O)C4(C(F)F)CCCC4)ccc3Cl)n2)cn1` [Example 110] are 2.7 nM and 3.7 nM.
